Measured values: patent US20240165116A1, “ROCK2 INHIBITOR FOR THE TREATMENT OF VIRAL INFECTION” (Graviton Bioscience B.V., priority 2021, published 2024)
Entries after “also recorded” stand apart in the source; their conditions may differ.

What was measured:
[1] = test system: SARS-CoV-2 (2019-nCoV/USA-WA1/2020 strain); test: Viral load in lung lysates of SARS-CoV-2 challenged human ACE2 transgenic mice; assay type: in vivo; conditions: 300 mg/kg daily via oral gavage in 0.5% CMC-Na; initial viral loads 100, 1000, 10,000 pfu; compared with vehicle and Remdesivir (25 mg/kg subcutaneously)
Method: FIGS. 6A, 6B, and 6C. Efficacy: Viral Load in Lung Lysates. […] Shown are viral copies/mg of lungs for initial viral loads of 100 pfu SARS-CoV2 (FIG. 6A), 1000 pfu SARS-CoV2 (FIG. 6B), and 10,000 pfu SARS-CoV2 (FIG. 6C). Groups from left to right: Vehicle, Formula XII (300 mg/kg), Remdesivir (RDV). Inserts: Formula XII (300 mg/kg) (left), Remdesivir (RDV) (right).
Human ACE2 transgenic mice from Jackson Laboratories (n=5 per group) were challenged at t=0 with SARS-CoV-2 at an initial viral load of 100 PFU, 1,000, or 10,000 pfu of 2019-nCoV/USA-WA1/2020 strain. This strain was isolated from an oropharyngeal swab from a patient with a respiratory illness who developed the clinical disease (COVID-19) in January 2020 in Washington, US (BEI Resources, NR-52281). […] The infected mice were dosed daily via oral gavage with (1) 0.5% sodium carboxymethyl cellulose (CMC-Na) (negative control), (2) 300 mg/kg Formula XII in 0.5% CMC-Na (test group), or (3) Remdesivir (RDV). RDV, an anti-viral reagent that acts as a nucleoside analog and inhibits the RNA-dependent RNA polymerase (RdRp) of coronaviruses including SARS-CoV-2, was used a positive control. […] The animals were monitored daily. […] The viral load in the lung was determined by qPCR detecting viral RNA in lung lysates.

[2] = test system: SARS-CoV-2 (2019-nCoV/USA-WA1/2020 strain); test: In vitro SARS-CoV-2 prevention model: viral RNA in supernatant by qPCR; assay type: cell-based; conditions: Severe acute respiratory syndrome coronavirus 2; Calu-3 cells treated 2 h at 37° C., challenged with 10^2 PFU SARS-CoV-2 for 6 h, qPCR of supernatant at 48 h; calculated from best-fit values; read-out: EC50 (SARS-CoV-2 in supernatant, classical dose-response curve)
Method: FIG. 2. Efficacy: SARS-CoV-2 CPN in Supernatant. Immortalized human airway epithelial cells (Calu-3) were treated with the listed concentrations of the Formula XII compound for 2 h at 37° C. followed by challenge with SARS-CoV-2 for 6 h. After washing, the cells were maintained for 48 hours and viral infection was analyzed by qPCR of the supernatant. Each data point represents the mean of three replicates.
FIG. 3. Efficacy: Classical Dose-Response Curve. This figure provides the dose-response curve for the experiment described in Example 1 and FIG. 2.
A 50 mM stock solution of (6-(4-((4-(1H-pyrazol-4-yl)phenyl)amino)pyrimidin-2-yl)-1-methyl-1H-indol-2-yl)(3,3-difluoroazetidin-1-yl)methanone (Formula XII) in DMSO was diluted using PBS to Formula XII concentrations of 100 μM, 10 μM, 1 μM, 0.3 μM, 0.1 μM, and 0.03 μM. About 30,000 immortalized human airway epithelial cells (Calu-3) were grown to about 100,000 cells per well in a 96-well format. […]
Viral infection was analyzed by qPCR (qRT-PCR). […] Viral or host RNA levels in the supernatant were determined using the TaqPath™ 1-Step RT-qPCR Master Mix (Thermo Fisher) on CFX Connect Real-Time System (Bio-Rad) instrument using the following primers: Fwd: 5′-[…]-3; Rev: 5′-[…]-3′).
Datasets were analyzed and plotted in GraphPad Prism (version 9.0.2). […]

Cn1c(C(=O)N2CC(F)(F)C2)cc2ccc(-c3nccc(Nc4ccc(-c5cn[nH]c5)cc4)n3)cc21 [Formula XII, (6-(4-((4-(1H-pyrazol-4-yl)phenyl)amino)pyrimidin-2-yl)-1-methyl-1H-indol-2-yl)(3,3-difluoroazetidin-1-yl)methanone]
Viral load in the lung (viral copies/mg of lungs, qPCR of lung lysates) [1]: significantly reduced viral load as compared to both the negative as well as the positive control; also recorded: reduces the spread of SARS-CoV2 in the lungs of mice in vivo | EC50 [2]: 124 nM
